What was measured:
S. typhimurium TA97a = assay: Dose range finding colony forming assay, strain TA97a with metabolic activation; format: cell-based
Method: A series of dose range finding assays were performed with five bacterial strains, S. typhimurium TA97a, TA98, TA100, TA1535, and E. coli WP2 uvrA pKM101, with and without metabolic activation at three plates per dose. The following doses, along with positive and negative controls, were tested: 5000, 2500, 1250, 500, 250, 125, 50, 20, 10, 5, 2, 1, and 0.2 μg/plate. The plates were evaluated for toxicity (a decrease in plate counts with increasing dose and/or a visible thinning of the background lawn) and for precipitation of the test article. Metabolic activation was included in some samples by adding phenobarbital/benzoflavone-induced rat liver S9 fractions with cofactors (S9 mix). Prior to use, freshly thawed aliquots of rat liver S9 were mixed with a sterile cofactor mix. The S9 mix contains a 10% liver S9 concentration and was refrigerated or stored on ice until used. When testing with metabolic activation, the S9 mix was used in the assay tube in place of phosphate buffer.
Dosing formulations were prepared to deliver all doses in a constant volume of 0.1 mL. The highest dose was prepared from test article weighed to the nearest 0.1 mg and the remaining formulations were prepared as serial dilutions from the high dose stock formulation. Using a permanent marking pen or computer printed labels, assay plates were labeled with the project and study numbers and the date. Assay plates and tubes were labeled with a unique identifier, which was used to match the assay tubes with the properly identified minimal glucose agar plate.
The pre-incubation method was used to perform the assay. The assay mix consisted of 0.1 mL of the test article formulation or control article, 0.5 mL S9 mix or phosphate buffer, and 0.1 mL of bacterial culture. Assay tubes were incubated at 37±1° C. with gentle agitation for 20±1 minutes, then 2.0-2.5 mL top agar was added to the assay mix and the top agar/assay mix poured onto appropriately labeled minimal glucose agar plates. Once the top agar hardened, the plates were inverted and incubated at 37±1° C. for 48±2 hours. Plates were counted with the Sorcerer (v. 2.2)/Ames Study Manager (v. 1.2.4) system from Perceptive Instruments (Suffolk, UK). With this system, plate counts are automatically transferred from the plate imager (Sorcerer) to a Study Manager spreadsheet, and the data are stored in a secure manner on an Oracle database. Some plates were hand counted, e.g., if sample precipitate interferes with automatic counting or toxicity results in the formation of microcolonies, in which case, counts for these plates were entered into the spreadsheet manually. Plates were scored also with the extent of colonization by a post fix code.

[1] = tested on: NEB 5 α competent E. coli; assay: Bacterial colony forming assay (Examples 6-9); format: cell-based; conditions: for Effect on E. coli colony count: PEG-400/HPβCD mixed into alcohol gel, FIG. 1; for Inhibition of E. coli growth: alcohol gel formulation, FIG. 2
Method: NEB 5 α competent E. coli were retrieved from frozen cultures and grown overnight in a bacterial incubator at 37° C. Proliferating cultures of bacteria were used in a colony forming assay by adding 25 μL of bacteria from the overnight culture to 10 mL of fresh Lysogeny Broth (LB; Bertani, G. (2004). “Lysogeny at mid-twentieth century: P1, P2, and other experimental systems”. Journal of Bacteriology. 186 (3): 595-600. PMC 321500. PMID 14729683. doi:10.1128/JR.186.3.595-600.2004). 1 mL of this diluted bacteria was added to various dilutions of formulations of substituted tolan compounds as described in Table C, below and in charts of the corresponding Figures.
One mL of each formulation was mixed with 1 mL of diluted bacteria in LB and put onto agar plates. Alcohol gels were allowed to dry and incubated overnight for 16-18 hrs. Control plates consisted of 2 mL alcohol gel plus 1 mL diluted bacteria, resulting in a colony count of less than 10 colonies, a 1 mL alcohol gel plus 1 mL diluted bacteria, resulting in a partial lawn of bacteria (colonies were too close to count appropriately), 1 mL diluted bacteria alone, resulting in a full lawn of bacteria (no distinguishable colonies), and an appropriate dilution of PEG-400 and HPβCD into 1 mL of alcohol gel plus 1 mL diluted bacteria, resulting in a lawn of bacteria. Plate area was then selected and the Image J colony counter was used to obtain colony counts (Size (pixels squared) 5-1000 and circularity 0.5-1).

MRSA USA 400 biofilms = assay: Cell death in an existing biofilm, DAPI/propidium iodide staining; format: cell-based, Staphylococcus aureus; conditions: 24 h treatment; 0.008 mM to 0.125 mM; FIG. 15
Method: For the treatment of MRSA USA 400 biofilms, the same 96 well plate assay procedure was used as described in the biofilm inhibition section above. However, the MRSA USA 400 inoculum (10^8 CFU/mL) grew overnight at 37° C. in the absence of BM3103 and without shaking. After 24 h of biofilm formation, BM3103 was serially diluted across a 96 well plate from of 1 mM to 0.002 mM. The plate was incubated again overnight at 37° C. without shaking.
In order to confirm that treatment with BM3103 induced MRSA USA 400 bacterial cell death in the existing biofilm, both untreated cells and cells treated with BM3103 were stained with a combination of DAPI (nuclear stain) and Propidium iodide (PI, Live dead stain) as described in Example 15. MRSA USA 400 were plated in a well plate at 10^8 CFU/mL in combination with BM3103 treatment or no treatment. Plates were placed at 37° C. for 24 h. Bacteria cells were co-stained with DAPI and PI at 50 μg/mL and 500 μg/mL, respectively, for 15 min at room temperature. Wells were washed with warmed phosphate buffered saline (PBS) and maintained in PBS throughout the imaging acquisition process. Images were captured using the same exposure limits for each filter. […] Concentrations above 0.125 mM gave a similar result.

`COc1ccc(C#Cc2ccc(O)cc2)cc1` [BM3103, 4-hydroxy-4′-methoxytolan] was tested, and the Colony forming units/plate (S. typhimurium TA97a; 0.2 μg/plate) was 89.0 colony forming units/plate, the Individual colony counts (S. typhimurium TA97a; 0.2 μg/plate) was 89 and the Colony forming units/plate (S. typhimurium TA97a; 1 μg/plate) was 122.0 colony forming units/plate. For the same molecule, the Individual colony counts (S. typhimurium TA97a; 1 μg/plate) was 122, the Colony forming units/plate (S. typhimurium TA97a; 2 μg/plate) was 78.0 colony forming units/plate and the Individual colony counts (S. typhimurium TA97a; 2 μg/plate) was 78. The Colony forming units/plate (S. typhimurium TA97a; 5 μg/plate) was 78.0 colony forming units/plate, the Individual colony counts (S. typhimurium TA97a; 5 μg/plate) was 78 and the Colony forming units/plate (S. typhimurium TA97a; 10 μg/plate) was 77.0 colony forming units/plate. The Individual colony counts (S. typhimurium TA97a; 10 μg/plate) was 77.0, the Colony forming units/plate (S. typhimurium TA97a; 20 μg/plate) was 0.0 colony forming units/plate and the Individual colony counts (S. typhimurium TA97a; 20 μg/plate) was 0. The Colony forming units/plate (S. typhimurium TA97a; 50 μg/plate) was 0.0 colony forming units/plate, the Individual colony counts (S. typhimurium TA97a; 50 μg/plate) was 0 and the Colony forming units/plate (S. typhimurium TA97a; 125 μg/plate) was 0.0 colony forming units/plate. For the same molecule, the Individual colony counts (S. typhimurium TA97a; 125 μg/plate) was 0, the Colony forming units/plate (S. typhimurium TA97a; 250 μg/plate) was 0.0 colony forming units/plate and the Individual colony counts (S. typhimurium TA97a; 250 μg/plate) was 0. For the same molecule, the Colony forming units/plate (S. typhimurium TA97a; 500 μg/plate) was 0.0 colony forming units/plate, the Individual colony counts (S. typhimurium TA97a; 500 μg/plate) was 0 and the Colony forming units/plate (S. typhimurium TA97a; 1250 μg/plate) was 0.0 colony forming units/plate. The Individual colony counts (S. typhimurium TA97a; 1250 μg/plate) was 0, the “Plate postfix code (individual colony counts)” value (S. typhimurium TA97a; 1250 μg/plate) was “A P” and the Colony forming units/plate (S. typhimurium TA97a; 2500 μg/plate) was 0.0 colony forming units/plate. The Individual colony counts (S. typhimurium TA97a; 2500 μg/plate) was 0, the Colony forming units/plate (S. typhimurium TA97a; 5000 μg/plate) was 0.0 colony forming units/plate and the Individual colony counts (S. typhimurium TA97a; 5000 μg/plate) was 0. The “Effect on E. coli colony count” value ([1]; 280 μM (62.5 μg/mL) dilution) was “reduced the E. coli colony count considerably”, the “Effect on E. coli colony count” value ([1]; 557 μM (125 μg/mL) dilution) was “reduced colonization even more” and the “Inhibition of E. coli growth” value ([1]; 2.23 mM (500 μg/mL)) was “inhibited E. coli growth completely”. For the same molecule, the “Inhibition of E. coli growth” value ([1]; 4.45 mM (1000 μg/mL)) was “inhibited E. coli growth completely” and the “PI staining (cell death) in existing biofilm” value (MRSA USA 400 biofilms) was “dose dependent increase in PI staining”.

From patent US12678412B2, “Substituted tolans for the modulation of microbial colonization” (BioMendics, LLC, priority 2017, dated 2026)
